The test concerns the target human σ1 receptor (Homo sapiens (Human), UniProt Q99720). Nature of the test: Human σ1 receptor radioligand assay ([3H](+)-pentazocine, transfected HEK-293 membranes). The settings on record: binding to the σ1 receptor expressed as Ki, [3H](+)-pentazocine 5 nM. On the procedure:
Human σ1 Receptor Radioligand Assay
To investigate binding properties of test compounds to human σ1 receptor, transfected HEK-293 membranes and [^3H](+)-pentazocine (Perkin Elmer, NET-1056), as the radioligand, were used. The assay was carried out with 7 μg of membrane suspension, 5 nM of [^3H](+)-pentazocine in either absence or presence of either buffer or 10 μM Haloperidol for total and non-specific binding, respectively. Binding buffer contained Tris-HCl 50 mM at pH 8. Plates were incubated at 37° C. for 120 minutes. After the incubation period, the reaction mix was then transferred to MultiScreen HTS, FC plates (Millipore), filtered and plates were washed 3 times with ice-cold 10 mM Tris-HCL (pH 7.4). Filters were dried and counted at approximately 40% efficiency in a MicroBeta scintillation counter (Perkin-Elmer) using EcoScint liquid scintillation cocktail
Chain of human σ1 receptor (Q99720 whole entry): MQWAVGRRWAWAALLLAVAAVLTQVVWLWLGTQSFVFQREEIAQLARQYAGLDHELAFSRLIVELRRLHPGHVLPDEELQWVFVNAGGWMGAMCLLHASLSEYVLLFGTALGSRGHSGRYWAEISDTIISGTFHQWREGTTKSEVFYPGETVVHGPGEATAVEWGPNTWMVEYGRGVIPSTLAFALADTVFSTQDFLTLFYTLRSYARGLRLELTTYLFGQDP
For orientation: Ki means the dissociation constant of the complex between target and ligand, obtained from inhibition or displacement. A high value points to lower affinity. `O=C1NC2(CCN(CCc3ccccc3)CC2)Cc2ccccc21` [Example 1, 1′-(2-Phenylethyl)-2,4-dihydro-1H-spiro[isoquinoline-3,4′-piperidin]-1-one]: the Ki was under 100 nM.
With `O=C1NC2(CCN(Cc3ccccc3)CC2)Cc2ccccc21` [Example 2, 1′-benzyl-2,4-dihydro-1H-spiro[isoquinoline-3,4′-piperidin]-1-one], the Ki is under 100 nM.
As for `c1ccc(CN2CCC3(CC2)Cc2ccccc2CN3)cc1` [Example 4, 1′-benzyl-2,4-dihydro-1H-spiro[isoquinoline-3,4′-piperidine]], the figure is under 100 nM; as for `CN1Cc2ccccc2CC12CCN(Cc1ccccc1)CC2` [Example 6, 1′-Benzyl-2-methyl-2,4-dihydro-1H-spiro[isoquinoline-3,4′-piperidine]], under 100 nM; as for `CN1Cc2ccccc2CC12CCN(CCN1CCOCC1)CC2` [Example 7, 4-(2-(2-Methyl-2,4-dihydro-1H-spiro[isoquinoline-3,4′-piperidine]-1′-yl)ethyl)morpholine], under 500 nM.

The values above are taken from patent US10072008B2, “Spiro-isoquinoline-3,4′-piperidine compounds having activity against pain” (LABORATORIOS DEL DR. ESTEVE S.A., priority 2015, dated 2018).
